Laboratory results from ChEMBL document CHEMBL6078624, “Structure-based discovery of a 4,5-Dihydropyrazole-cored PET ligand for imaging of receptor-interacting serine/threonine-protein kinase 1 (RIPK1) in the brain” (Eur J Med Chem, 2024).

Experiments:
[1] = Biodistribution in male ICR mouse blood at 0.74 MBq, iv administered into tail vein measured at 2 mins post-injection by automatic gamma counter analysis; type: ADME, organism-based; conditions: in vivo
[2] = Biodistribution in male ICR mouse bone at 0.74 MBq, iv administered into tail vein measured at 2 mins post-injection by automatic gamma counter analysis; type: ADME, organism-based, Bone element; conditions: in vivo
[3] = Biodistribution in male ICR mouse blood at 0.74 MBq, iv administered into tail vein pre-treated with GSK'547 followed by compound addition by automatic gamma counter analysis relative to baseline; type: ADME, organism-based; conditions: in vivo
[4] = Biodistribution in male ICR mouse kidney at 0.74 MBq, iv administered into tail vein pre-treated with WL8 followed by compound addition by automatic gamma counter analysis relative to baseline; type: ADME, organism-based; conditions: in vivo
[5] = Biodistribution in male ICR mouse bone at 0.74 MBq, iv administered into tail vein measured at 10 mins post-injection by automatic gamma counter analysis; type: ADME, organism-based, Bone element; conditions: in vivo
[6] = Biodistribution in male ICR mouse brain at 0.74 MBq, iv administered into tail vein pre-treated with WL8 at 6 mg/kg followed by compound addition by automatic gamma counter analysis; type: ADME, organism-based; conditions: in vivo
[7] = Biodistribution in male ICR mouse heart at 0.74 MBq, iv administered into tail vein measured at 60 mins post-injection by automatic gamma counter analysis; type: ADME, organism-based; conditions: in vivo, 1 h
[8] = Biodistribution in male ICR mouse lung at 0.74 MBq, iv administered into tail vein pre-treated with GSK'547 followed by compound addition by automatic gamma counter analysis relative to baseline; type: ADME, organism-based; conditions: in vivo
[9] = Biodistribution in male ICR mouse small intestine 0.74 MBq, iv administered into tail vein pre-treated with GSK'547 followed by compound addition by automatic gamma counter analysis relative to baseline; type: ADME, organism-based; conditions: in vivo
[10] = Biodistribution in male ICR mouse muscle tissue at 0.74 MBq, iv administered into tail vein pre-treated with GSK'547 followed by compound addition by automatic gamma counter analysis relative to baseline; type: ADME, organism-based; conditions: in vivo
[11] = Biodistribution in male ICR mouse lungs at 0.74 MBq, iv administered into tail vein by automatic gamma counter analysis; type: ADME, organism-based, Lung; conditions: in vivo
[12] = Biodistribution in male ICR mouse blood at 0.74 MBq, iv administered into tail vein pre-treated with WL8 followed by compound addition by automatic gamma counter analysis; type: ADME, organism-based; conditions: in vivo
[13] = Biodistribution in male ICR mouse brain at 0.74 MBq, iv administered into tail vein measured at 10 mins post-injection by automatic gamma counter analysis; type: ADME, organism-based; conditions: in vivo
[14] = Biodistribution in male ICR mouse liver at 0.74 MBq, iv administered into tail vein by automatic gamma counter analysis; type: ADME, organism-based; conditions: in vivo
[15] = Drug uptake in male mouse cerebellum at 5 microCi/ml incubated for 30 mins by phosphor imager analysis; type: ADME, tissue-based; conditions: 0.5 h
[16] = Biodistribution in male ICR mouse bone at 0.74 MBq, iv administered into tail vein pre-treated with WL8 followed by compound addition by automatic gamma counter analysis relative to baseline; type: ADME, organism-based, Bone element; conditions: in vivo
[17] = Biodistribution in male ICR mouse blood at 0.74 MBq, iv administered into tail vein measured at 30 mins post-injection by automatic gamma counter analysis; type: ADME, organism-based; conditions: in vivo, 0.5 h
[18] = Biodistribution in male ICR mouse blood at 0.74 MBq, iv administered into tail vein measured at 60 mins post-injection by automatic gamma counter analysis; type: ADME, organism-based; conditions: in vivo, 1 h
[19] = Biodistribution in male ICR mouse stomach at 0.74 MBq, iv administered into tail vein pre-treated with WL8 followed by compound addition by automatic gamma counter analysis relative to baseline; type: ADME, organism-based; conditions: in vivo
[20] = Biodistribution in male ICR mouse brain at 0.74 MBq, iv administered into tail vein measured at 30 mins post-injection by automatic gamma counter analysis; type: ADME, organism-based; conditions: in vivo, 0.5 h
[21] = Drug uptake in male Sprague-Dawley rat cortex at 12.6 to 18.6 MBq, iv administered into tail vein by PET/CT imaging analysis; type: ADME, organism-based; conditions: in vivo, dose 12.6-18.6 MBq
[22] = Stability of compound in saline at 37 degreeC incubated for 6 hrs by HPLC analysis; type: physicochemical; conditions: buffer
[23] = Biodistribution in male ICR mouse spleen at 0.74 MBq, iv administered into tail vein pre-treated with WL8 followed by compound addition by automatic gamma counter analysis relative to baseline; type: ADME, organism-based; conditions: in vivo
[24] = Biodistribution in male ICR mouse liver at 0.74 MBq, iv administered into tail vein pre-treated with GSK'547 followed by compound addition by automatic gamma counter analysis relative to baseline; type: ADME, organism-based; conditions: in vivo
[25] = Biodistribution in male ICR mouse pancreas at 0.74 MBq, iv administered into tail vein measured at 60 mins post-injection by automatic gamma counter analysis; type: ADME, organism-based; conditions: in vivo, 1 h
[26] = Drug uptake in male rat white matter region at 5 microCi/ml incubated for 30 mins by phosphor imager analysis; type: ADME, tissue-based, Brain white matter; conditions: 0.5 h
[27] = Biodistribution in male ICR mouse blood at 0.74 MBq, iv administered into tail vein pre-treated with GSK'547 followed by compound addition by automatic gamma counter analysis; type: ADME, organism-based; conditions: in vivo
[28] = Biodistribution in male ICR mouse bone at 0.74 MBq, iv administered into tail vein measured at 60 mins post-injection by automatic gamma counter analysis; type: ADME, organism-based, Bone element; conditions: in vivo, 1 h
[29] = Biodistribution in male ICR mouse lung at 0.74 MBq, iv administered into tail vein pre-treated with WL8 followed by compound addition by automatic gamma counter analysis relative to baseline; type: ADME, organism-based; conditions: in vivo
[30] = Biodistribution in male ICR mouse muscle tissue at 0.74 MBq, iv administered into tail vein pre-treated with WL8 followed by compound addition by automatic gamma counter analysis relative to baseline; type: ADME, organism-based; conditions: in vivo
[31] = Biodistribution in male ICR mouse stomach at 0.74 MBq, iv administered into tail vein pre-treated with GSK'547 followed by compound addition by automatic gamma counter analysis relative to baseline; type: ADME, organism-based; conditions: in vivo
[32] = Biodistribution in male ICR mouse spleen at 0.74 MBq, iv administered into tail vein pre-treated with GSK'547 followed by compound addition by automatic gamma counter analysis relative to baseline; type: ADME, organism-based; conditions: in vivo
[33] = Biodistribution in male ICR mouse brain at 0.74 MBq, iv administered into tail vein pre-treated with WL8 followed by compound addition by automatic gamma counter analysis relative to baseline; type: ADME, organism-based; conditions: in vivo

Drug uptake [1]: 4.57 % ID/g
Drug uptake [2]: 3.09 % ID/g
Drug uptake [3]: Active
Drug uptake [4]: Active
Drug uptake [5]: 3.6 % ID/g
Drug uptake [6]: 129%
Drug uptake [7]: < 4 % ID/g
Drug uptake [8]: Active
Drug uptake [9]: Not_active
Drug uptake [10]: Active
Drug uptake [11]: > 6.5 % ID/g
Drug uptake [12]: > 58%
Drug uptake [13]: 1.34 % ID/g
Drug uptake [14]: > 6.5 % ID/g
Drug uptake [15]: Active
Drug uptake [16]: Not_active
Drug uptake [17]: 2.55 % ID/g
Drug uptake [18]: 0.97 % ID/g
Drug uptake [19]: Active
Drug uptake [20]: 0.36 % ID/g
SUV [21]: Active
Stability [22]: Stable
Drug uptake [23]: Active
Drug uptake [24]: Active
Drug uptake [25]: < 4 % ID/g
Drug uptake [26]: Active
Drug uptake [27]: > 58%
Drug uptake [28]: 6.69 % ID/g
Drug uptake [29]: Active
Drug uptake [30]: Active
Drug uptake [31]: Active
Drug uptake [32]: Active
Drug uptake [33]: Active
SMILES: Cc1ccc(C2CC=NN2C(=O)C2CCN(C(=O)c3cccc([18F])n3)CC2)cc1F (stereo not drawn)
